System: 624824-186-R-J3-PDC multicell spheroids, viability
Assay: Anticancer human tumor 624824-186-R-J3-PDC patient-derived colon adenocarcinoma cell line growth inhibition [PI3K]
Conditions: for IC50: curve of first compound; for viability, T/C: stronger effect = lower value
From the text: Combinatorial screen of targeted agents with the PI3K inhibitors inavolisib, alpelisib, duvelisib, and copanlisib in multi-cell type tumor spheroids
A high-throughput screen of multi-cell type tumor spheroids was designed to identify active combinations of targeted small molecules and PI3K pathway inhibitors. Complex spheroids include a stromal component modeled by human endothelial cells (HUVEC) and fibroblasts modeled by human mesenchymal stem cells (MSCs). The concentration ranges selected for each drug and investigational agent were based upon clinically achievable concentrations if the clinical Cmax of the agent was known.
Compounds. The drugs and investigational agents: inavolisib (NSC800729), alpelisib (NSC765974), duvelisib (NSC772469), copanlisib (NSC816437), ipatasertib (NSC767898), afuresertib (NSC778305), talazoparib (NSC767125), sapanisertib (NSC764658), selumetinib (NSC741078), tovorafenib (DAY101, NSC766906), vemurafenib (NSC761431), ravoxertinib (NSC781343), sotorasib (NSC818433), MRTX1133 (NSC 836407), abemaciclib (NSC 768073), palbociclib (NSC758247), venetoclax (NSC 766270), SY5609 (NSC837396), enzalutamide (NSC755605), and darolutamide (NSC825331), were obtained from the National Cancer Institute (NCI) Developmental Therapeutics Program Chemical Repository. The FDA-approved anticancer drug set is available from the NCI Developmental Therapeutics Program. […] The stock solutions were prepared in dimethyl sulfoxide (DMSO, Sigma-Aldrich, St. Louis, MO, cat. D2650) at 800-fold the tested concentration and stored at -70 degrees C prior to their use. All drugs and investigational agents were tested over a range starting from a high concentration at or near the clinical Cmax and decreasing in half-log increments. If the clinical Cmax for an agent had not been determined, the highest concentration tested was 10 microM.
Cell Culture. All cells were maintained in an incubator at 37 degrees C and 5% CO2 with 95% humidity. The PDC lines were cultured according to standard operating procedures established by the NCI PDMR (https://pdmr.cancer.gov/sops/default.htm). All PDCs were thawed and cultured in Matrigel-coated flasks prepared with a working solution of 1X Ham's F-12 nutrient mix, without supplementation (Invitrogen, Waltham, MA, cat. 11765054), 100 U/mL penicillin-streptomycin (Invitrogen, cat. 15140122), and 2.5% Matrigel (Corning Inc., Corning, NY, cat. 354248) for the first three passages. The 354836-022-R-J1-PDC, 475296-252-R-J1-PDC, and 997726-040-R-J2-PDC lines were cultured in 6A media, which includes advanced DMEM/F-12 (Thermo Fisher Scientific, cat. 12634028), 10 mM HEPES (Thermo Fisher Scientific, cat. 15630080), 1X GlutaMAX supplement (Thermo Fisher Scientific, cat. 35050061), 0.1 mg/mL primocin (InvivoGen, San Diego, CA, cat. ant-pm-2), 10% defined fetal bovine serum, heat inactivated (HyClone Laboratories Inc., Logan, UT, cat. SH30070.03HI), 50% L-WRN conditioned media (ATCC, cat. CRL-3276), 1.25 mM N-Acetyl-L-cysteine (Sigma-Aldrich, cat. A9165), 10 mM nicotinamide (Sigma-Aldrich, cat. N0636), 1X B-27 supplement (Thermo Fisher Scientific, cat. 17504044), 1X N-2 supplement (Thermo Fisher Scientific, cat. 17502048), and 10 microM Y-27632 dihydrochloride (Tocris Bioscience, Bristol, United Kingdom, cat. 1254). The 624824-186-R-J2-PDC line was cultured in 6C/Colon 1B media, which includes all 6A media components plus 50 ng/mL human EGF recombinant protein (Thermo Fisher Scientific, cat. PHG0311). […]

[1] = second compound 0.0316 µM, first compound 0.000316 µM
[2] = second compound 0.0316 µM, first compound 0.001 µM
[3] = second compound 0.0316 µM, first compound 0.00316 µM
[4] = second compound 0.0316 µM, first compound 0.01 µM
[5] = second compound 0.0316 µM, first compound 0.0316 µM
[6] = second compound 0.0316 µM, first compound 0.1 µM
[7] = second compound 0.1 µM, first compound 0.000316 µM
[8] = second compound 0.1 µM, first compound 0.001 µM
[9] = second compound 0.1 µM, first compound 0.00316 µM
[10] = second compound 0.1 µM, first compound 0.01 µM
[11] = second compound 0.1 µM, first compound 0.0316 µM
[12] = second compound 0.1 µM, first compound 0.1 µM
[13] = second compound 0.316 µM, first compound 0.000316 µM
[14] = second compound 0.316 µM, first compound 0.001 µM
[15] = second compound 0.316 µM, first compound 0.00316 µM
[16] = second compound 0.316 µM, first compound 0.01 µM
[17] = second compound 0.316 µM, first compound 0.0316 µM
[18] = second compound 0.316 µM, first compound 0.1 µM
[19] = second compound 1 µM, first compound 0.000316 µM
[20] = second compound 1 µM, first compound 0.001 µM
[21] = second compound 1 µM, first compound 0.00316 µM
[22] = second compound 1 µM, first compound 0.01 µM
[23] = second compound 1 µM, first compound 0.0316 µM
[24] = second compound 1 µM, first compound 0.1 µM
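Further: spheroids exposed to agents for seven days before luminescence read.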
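Wherever viability, T/C is given: luminescent signal used as a stand-in for spheroid viability; percent viability relative to DMSO vehicle control wells taken as 100%.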

Compound: Cn1ncnc1[C@H]1c2n[nH]c(=O)c3cc(F)cc(c23)N[C@@H]1c1ccc(F)cc1 + CC(Nc1ncnc2nc[nH]c12)c1cc2cccc(Cl)c2c(=O)n1-c1ccccc1
- IC50 (second compound 0.0316 µM): > 0.1 µM
- IC50 (second compound 0.1 µM): > 0.1 µM
- IC50 (second compound 0.316 µM): > 0.1 µM
- IC50 (second compound 1 µM): > 0.1 µM
- IC50 (second compound 3.16 µM): > 0.1 µM
- IC50 (second compound 10 µM): > 0.1 µM
- viability, T/C [1]: 104%
- viability, T/C [2]: 101%
- viability, T/C [3]: 135%
- viability, T/C [4]: 104%
- viability, T/C [5]: 116%
- viability, T/C [6]: 117%
- viability, T/C [7]: 104%
- viability, T/C [8]: 96.3%
- viability, T/C [9]: 107%
- viability, T/C [10]: 102%
- viability, T/C [11]: 95.9%
- viability, T/C [12]: 120%
- viability, T/C [13]: 99.2%
- viability, T/C [14]: 108%
- viability, T/C [15]: 110%
- viability, T/C [16]: 106%
- viability, T/C [17]: 114%
- viability, T/C [18]: 118%
- viability, T/C [19]: 98.5%
- viability, T/C [20]: 105%
- viability, T/C [21]: 105%
- viability, T/C [22]: 101%
- viability, T/C [23]: 111%
- viability, T/C [24]: 111%
- viability, T/C (second compound 3.16 µM, first compound 0.000316 µM): 109%
- viability, T/C (second compound 3.16 µM, first compound 0.001 µM): 107%
- viability, T/C (second compound 3.16 µM, first compound 0.00316 µM): 109%
- viability, T/C (second compound 3.16 µM, first compound 0.01 µM): 110%
- viability, T/C (second compound 3.16 µM, first compound 0.0316 µM): 104%
- viability, T/C (second compound 3.16 µM, first compound 0.1 µM): 112%
- viability, T/C (second compound 10 µM, first compound 0.000316 µM): 97.8%
- viability, T/C (second compound 10 µM, first compound 0.001 µM): 93%
- viability, T/C (second compound 10 µM, first compound 0.00316 µM): 101%
- viability, T/C (second compound 10 µM, first compound 0.01 µM): 98.2%
- viability, T/C (second compound 10 µM, first compound 0.0316 µM): 90.1%
- viability, T/C (second compound 10 µM, first compound 0.1 µM): 95.1%

Compound: Cn1ncnc1[C@H]1c2n[nH]c(=O)c3cc(F)cc(c23)N[C@@H]1c1ccc(F)cc1 + CC(Nc1ccc2c(c1)OCCn1cc(N3C(=O)OCC3C(F)F)nc1-2)C(N)=O
- IC50 (second compound 0.00316 µM): > 0.1 µM
- IC50 (second compound 0.01 µM): > 0.1 µM
- IC50 (second compound 0.0316 µM): > 0.1 µM
- IC50 (second compound 0.1 µM): > 0.1 µM
- IC50 (second compound 0.316 µM): > 0.1 µM
- IC50 (second compound 1 µM): > 0.1 µM
- viability, T/C (second compound 0.00316 µM, first compound 0.000316 µM): 102%
- viability, T/C (second compound 0.00316 µM, first compound 0.001 µM): 93.5%
- viability, T/C (second compound 0.00316 µM, first compound 0.00316 µM): 101%
- viability, T/C (second compound 0.00316 µM, first compound 0.01 µM): 99.7%
- viability, T/C (second compound 0.00316 µM, first compound 0.0316 µM): 87.8%
- viability, T/C (second compound 0.00316 µM, first compound 0.1 µM): 111%
- viability, T/C (second compound 0.01 µM, first compound 0.000316 µM): 97.8%
- viability, T/C (second compound 0.01 µM, first compound 0.001 µM): 93.6%
- viability, T/C (second compound 0.01 µM, first compound 0.00316 µM): 102%
- viability, T/C (second compound 0.01 µM, first compound 0.01 µM): 95.7%
- viability, T/C (second compound 0.01 µM, first compound 0.0316 µM): 101%
- viability, T/C (second compound 0.01 µM, first compound 0.1 µM): 92.1%
- viability, T/C [1]: 107%
- viability, T/C [2]: 99.7%
- viability, T/C [3]: 97.5%
- viability, T/C [4]: 92.8%
- viability, T/C [5]: 97.4%
- viability, T/C [6]: 106%
- viability, T/C [7]: 94.7%
- viability, T/C [8]: 105%
- viability, T/C [9]: 100%
- viability, T/C [10]: 99.8%
- viability, T/C [11]: 104%
- viability, T/C [12]: 106%
- viability, T/C [13]: 93.8%
- viability, T/C [14]: 99.3%
- viability, T/C [15]: 98.2%
- viability, T/C [16]: 91.6%
- viability, T/C [17]: 96.7%
- viability, T/C [18]: 100%
- viability, T/C [19]: 90.6%
- viability, T/C [20]: 90.3%
- viability, T/C [21]: 94%
- viability, T/C [22]: 91.9%
- viability, T/C [23]: 99.1%
- viability, T/C [24]: 86.6%

— PubChem BioAssay AID1963977 (Molecular Pharmacology Branch, DTP, NCI, 2024)
